Here are results for 4 compounds from patent publication US11484603B2, “Methods, systems, and compositions for inhibiting virulence of A/E family pathogens” (ARIZONA BOARD OF REGENTS ON BEHALF OF THE UNIVERSITY OF …, priority 2017, dated 2022).

In experiment [1] the test system is EspZ dimerization/oligomerization. As to the kind of experiment: ToxLuc system (ToxR-TM-MBP fusions, ctx promoter luciferase reporter). Type of experiment: cell-based, EPEC. Particulars: TM2 derivatives expressed as ToxR-TM-MBP fusions in E. coli ΔmalE strain (NT326); baseline Ala17.
Source text: (§1) Directional targeting of the TM region to the inner membrane allows the periplasmic MBP domain to complement the growth of the ΔmalE strain in medium containing maltose as the sole carbon source. […] TM domain interactions induce dimerization of cytoplasmic ToxR domains, allowing the transcriptional activator to bind to the ctx promoter and promote expression of the downstream luciferase reporter. […] A 17-residue poly-alanine stretch (Ala17) was used as a baseline TM control for nonspecific ToxR-dependent luciferase activation. A GpA GXXXG mutant (G831) was impaired for luciferase activation (REF).
as §1, with “Membrane-localized GXXXG sequences can promote homo- and hetero-typic interactions between proteins. Referring to FIG. 5A and FIG. 5B, a ToxLuc system was used to verify targeting of the predicted EspZ TM regions to the membrane and to assess the role of GXXXG sequences in EspZ dimerization/oligomerization. […] Western blot analyses confirmed robust expression of all ToxR-TM-MBP fusion proteins. Directional” for “Directional”, “activation. As noted previously, a” for “activation. A”, “mutant (G83I)” for “mutant (G831)”

The test system of another experiment is mitochondrial network. As to the kind of experiment: CCCP-induced perturbation of the mitochondrial network (COXIV/DAPI stain). Type of experiment: cell-based. Particulars: compared to mock-treated controls. The text has this: In transfected cells, EspZ prevented COOP-induced perturbation of the mitochondrial network (compared to control vector-transfected cells). Red=COXIV (mitochondrial stain); blue=DAPI stain.
The uncoupler carbonyl cyanide m-chlorophenylhydrazone (COOP) induces Fis1- and Drp1-dependent mitochondrial fission. In transfected cells, EspZ prevented COOP-induced perturbation of the mitochondrial network (see FIG. 10). Thus, EspZ may be necessary and sufficient for inhibiting mitochondrial fission.

Regarding “LGLGIAALVLGGVTTVAGGLAMK (Artificial inhibitor peptide based on EspZ) [G81L, targeting peptide, EspZ TM2 derivative]”, the “luciferase activity (TM self-association)” value in experiment [1] is “reduced luciferase activity to near-baseline levels”.
Turning to `N#CC(C#N)=NNc1cccc(Cl)c1` [CCCP, carbonyl cyanide m-chlorophenylhydrazone], the “effect on mitochondrial network” value in the experiment on mitochondrial network is “causes fragmentation of the mitochondrial network and its retraction towards the nucleus”.
For the compound “LGLGIAAGVLGLVTTVAGGLAMK (Artificial inhibitor peptide based on EspZ) [G85L, targeting peptide, EspZ TM2 derivative]”, the “luciferase activity (TM self-association)” value in experiment [1] is listed as “reduced luciferase activity to near-baseline levels”.
Same read-out and setting: the value for “LGLLIAALVLGLVTTVAGGLAMK (Artificial inhibitor peptide based on EspZ) [all three G residues, targeting peptide, EspZ TM2 derivative]” was “abrogated luciferase expression”.
